Experimental findings from US10183941B2, “Pyrimidine or pyridopyridone compound and application thereof” (GUANGZHOU BEBETTER MEDICINE TECHNOLOGY CO., LTD., priority 2015, dated 2019) are described below.

Read-outs that look alike come from different tables or passages of the source.

The subject of one data set is SW620. The data set can be described thus: Tumor cell proliferation inhibition (CellTiter-Glo), SW620. It counts as cell-based. Conditions: Homo sapiens, SW-620; 72 hours, 10% fetal bovine serum; read-out: SW620 IC50 class. The procedure:
(§1) The content of adenosine triphosphate (ATP) was determined using the CellTiter-Glo Luminescent Cell Viability Assay Kit (Promega, Madison, Wis.) to evaluate cell viability. Tumor cell lines (SW620, ZR-75-1, MDA-MB-231) were purchased from the Cell Resource Center of IBS, Fudan University, Shanghai and the American Type Culture Collection (ATCC). The cell density was determined using Scepter automated cell counter (Millipore # PHCC00000) after the cells were digested with pancreatin in cell culture dishes and resuspended in DPBS medium. The cells were diluted to a solution of 44,000 cells per ml. The cell solution of which density was adjusted was added into the cell assay plate at 90 microliters per well. The well plate was incubated in an incubator with 5% CO2 at 37° C. for 24 hours and then added with test compounds with different concentrations. The cells were incubated with the compounds in the presence of 10% fetal bovine serum for 72 hours. ATP content was assayed using the CellTiter-Glo® Luminescent Cell Viability Assay kit (see instructions of manufacturer) to assess cell growth inhibition. Briefly, 30 μl of CellTiter-Glo® reagent was added to each well, rocked for 10 minutes to induce cell lysis, and […] were detected and recorded with Fluoroskan Ascent FL (Thermo). The maximum signal value was obtained from the cells treated with dimethyl sulfoxide for 72 hours. The minimum signal value was obtained from the separate culture medium (cell number was zero). Inhibition rate %=(maximum signal value−compound signal value)/(maximum signal value−minimum signal value)×100. Data was processed using GraphPad Prism V5.0 (GraphPad Software, San Diego, Calif.) software. IC50 values were calculated by fitting S-shaped dose-response curves.

The target of data set [1] is T1, CDK4 (GST-CDK4(1-303end)/GST-CycD3(1-292end)) (Homo sapiens, UniProt P11802).
T1 construct: GST-CDK4(1-303end); purchased Carna 04-105
The data set can be described thus: CDK4 activity inhibition experiment (Caliper mobility shift assay). It counts as biochemical. Conditions: enzyme activity inhibition; read-out: CDK4 IC50 class.

The test system of data set [2] is MDA-MB-231 breast cancer cells. The data set can be described thus: Cell cycle inhibition experiment (PI staining, flow cytometry). Format: cell-based. The conditions noted are these: Homo sapiens, MDA-MB-231 cells, 24 h. From the text: The cell cycle and apoptosis assay kit (Beyotime, C1052) used in this experiment is an assay kit for analyzing the cell cycle and apoptosis using the classic method of Propidium staining (PI staining). Propidium (PI) is a double-stranded DNA fluorescent dye. The combination of propidium and double-stranded DNA can produce fluorescence, and fluorescence intensity is proportional to the amount of double-stranded DNA. After DNA in cells is stained with propidium, the DNA content of the cells can be measured by flow cytometry, and then the cell cycle and apoptosis can be analyzed according to the distribution of DNA content.
MDA-MB-231 cells were seeded into a 6-well plate at 3×10^5 per well and cultured for 24 hours.
In tumor cell cycle, the binding of CDK4 and CDK6 to cyclin D promotes G1 phase into S phase. CDK4/6 inhibitor selectively arrests the G1 phase of tumor cells into S phase. The detection results of the cell cycle of MDA-MB-231 breast cancer cells by flow cytometry indicate that the CDK4/6 inhibitor compounds provided by the present disclosure stop the growth of G1 phase cells and reduce S phase cells in a concentration-dependent manner, as shown in the following table.

For data set [3], the target named is T2, CDK6 (GST-CDK6(1-326end)) (Homo sapiens, UniProt Q00534).
T2 construct: GST-CDK6(1-326end); purchased Carna 04-107
Description: CDK6 activity inhibition experiment (Caliper mobility shift assay). Format: biochemical. The conditions noted are these: enzyme activity inhibition; read-out: CDK6 IC50 class. The procedure:
The activity of CDK6 protein kinase was measured using Caliper mobility shift assay (see J. Biomol Screen 14:31, 2009). […] 10 μl of the 2.5 times diluted CDK6 enzyme solution (GST-CDK6(1-326end); Carna, Cat. No 04-107) was added and then incubated at room temperature for 10 minutes, then 10 μl of the 2.5 times diluted substrate solution Peptide FAM-P8 (GL Biochem, Cat. No. 112396) was added. After being incubated at 28° C. for 40 minutes, 25 μl of stop solution was added to stop the reaction. Conversion rate data was read from Caliper EZ Reader II (Caliper Life Sciences). The conversion rate data was converted into inhibition rate data. […] Conversion rate data was converted into inhibition rate data according to the method described above. Inhibition rate %=(max−conversion rate)/(max−min)×100.

Another data set addresses T3, CDK2 (Homo sapiens, UniProt P24941).
T3 construct: purchased Carna 04-103
Description: CDK2 activity inhibition experiment (Caliper mobility shift assay). It counts as biochemical. The conditions noted are these: enzyme activity inhibition; read-out: CDK2 IC50 class. The protocol:
After being incubated at 28° C. for 60 minutes, 25 μl of stop solution was added to stop the reaction. Conversion rate data was read from Caliper EZ Reader II (Caliper Life Sciences). The conversion rate data was converted into inhibition rate data. […] The curve was plotted with compound concentration and inhibition rate as horizontal and vertical coordinates, and the IC50 was calculated by fitting the curve using XLFit excel add-in version 4.3.1 software. Inhibition rate %=(max-conversion rate)/(max-min)×100.

Data set [4] can be described thus: Pharmacokinetic (PK) experiment in rats. It counts as in vivo. Conditions: male, SD, plasma, po, rat, intragastric 20 mg/kg. The protocol:
Male SD rats weighing 300-350 g were fasted overnight prior to the experiment. The compounds to be tested were dissolved in 30% sulfobutyl ether-β-cyclodextrin (SBE-β-CD) and the rats were intragastric administration at 20 mg/kg. The blood was taken from the tails of the rats at 15 min, 30 min, and 1, 2, 3, 4, 6, 8 and 24 hours after administration, with about 0.3 ml of blood at each time point, and then the blood was placed in a centrifuge tube containing K2-EDTA, and centrifuged (2,000 g, 10 min, 4° C.) to take the plasma which was then stored in an ultra-low temperature freezer at −80° C. 50 μL, of plasma sample was mixed with 5 μL of internal standard (IS) and extracted with ethyl acetate. The residue was redissolved in acetonitrile after vacuum drying. The sample was filtered and injected into LC-MS/MS for analysis to determine the concentration of the compounds to be tested.
In the table: Tmax refers to the peak time, Cmax refers to the maximum plasma drug concentration, T1/2 is the half-life, AUClast refers to the area under the 0-24 hour time-concentration curve, AUCinf refers to the area under the 0-Inf time-concentration curve.

For the next data set, the system named is ZR-75-1. Description: Tumor cell proliferation inhibition (CellTiter-Glo), ZR-75-1. Format: cell-based. The conditions noted are these: Homo sapiens, 72 hours, 10% fetal bovine serum, read-out: ZR-75-1 IC50 class. The protocol: as §1

T2 sequence (Q00534 whole entry): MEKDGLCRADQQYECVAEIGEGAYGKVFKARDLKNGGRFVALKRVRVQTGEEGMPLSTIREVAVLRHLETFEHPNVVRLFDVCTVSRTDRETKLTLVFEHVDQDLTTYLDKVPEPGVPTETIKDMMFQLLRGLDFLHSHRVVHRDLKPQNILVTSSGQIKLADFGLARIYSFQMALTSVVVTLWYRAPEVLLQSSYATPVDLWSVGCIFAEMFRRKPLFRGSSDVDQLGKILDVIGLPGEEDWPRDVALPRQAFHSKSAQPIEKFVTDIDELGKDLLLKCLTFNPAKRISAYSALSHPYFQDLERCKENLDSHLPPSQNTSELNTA
T2 sequence (P30281 whole entry partner): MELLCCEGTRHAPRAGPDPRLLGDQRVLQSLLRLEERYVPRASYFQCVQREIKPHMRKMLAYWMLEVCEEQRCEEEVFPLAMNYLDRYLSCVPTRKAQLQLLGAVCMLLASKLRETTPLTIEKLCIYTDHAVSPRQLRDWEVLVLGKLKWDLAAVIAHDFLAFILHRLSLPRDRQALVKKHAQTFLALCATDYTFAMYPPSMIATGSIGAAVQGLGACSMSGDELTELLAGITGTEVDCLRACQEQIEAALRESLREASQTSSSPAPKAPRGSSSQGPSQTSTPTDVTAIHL
T1 sequence (P11802 whole entry): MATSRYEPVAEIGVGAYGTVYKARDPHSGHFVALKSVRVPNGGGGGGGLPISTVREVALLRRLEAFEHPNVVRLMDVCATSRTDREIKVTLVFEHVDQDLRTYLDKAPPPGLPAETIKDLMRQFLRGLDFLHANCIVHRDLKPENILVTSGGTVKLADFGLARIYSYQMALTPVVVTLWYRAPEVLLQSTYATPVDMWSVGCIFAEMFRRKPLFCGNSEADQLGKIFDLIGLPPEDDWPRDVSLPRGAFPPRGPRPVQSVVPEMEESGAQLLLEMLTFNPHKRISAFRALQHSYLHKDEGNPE
T1 sequence (P30281 whole entry partner): as the sequence (P30281 whole entry partner) above

What is called IC50 is the midpoint of a concentration-inhibition curve. For orientation: Cmax means the highest concentration seen after dosing. Broadly, the Tmax is the time at which the peak concentration occurs. A word on the half-life: it is how long it takes for the measured level to halve. One may read the AUC(0-t) as the area under the concentration-time curve up to a stated or last time point. Read a low AUC(0-t) as less exposure. By AUC(0-inf) is commonly meant total exposure, with the tail of the curve extrapolated. Consider `CC(=O)c1c(C)c2cnc(Nc3ccc(C4CCN(CCS(C)(=O)=O)CC4)cn3)nc2n(C2CCCC2)c1=O` [Compound 1, 6-acetyl-8-cyclopentyl-5-methyl-2-((5-(1-(2-(methylsulfonyl)ethyl)piperidin-4-yl)pyridin-2-yl)amino)pyrido[2,3-d]pyrimidin-7(8H)-one], for which the IC50 with SW620 is 100 to 500 nM; in data set [1] it was < 10 nM; in data set [2] (read-out: IC50 (nM) G1 arrest) it was 41.7 nM; in data set [2] (read-out: IC50 (nM) S decrease), 46.1 nM; in data set [3], 10 to 50 nM; on CDK2 it was > 500 nM. The IC50 in the data set with ZR-75-1 lay within 100 to 500 nM. In addition, the peak level in data set [4] (Cmax) was 1450 ng/mL. Moreover, the time of peak concentration (Tmax) in data set [4] amounted to 1.5 h. The molecule also gave a half-life in data set [4] of 1.5 h. This molecule gave an AUC(0-t) in data set [4] (0-24 hour) of 4400 ng·h/mL. This molecule had an AUC(0-inf) in data set [4] (0-Inf) of 4540 ng·h/mL.
